Assay results published in article PMC10093686, “Structural insights into acetylated histone ligand recognition by the BDP1 bromodomain of Plasmodium falciparum” (International journal of biological macromolecules, 2022).
Entries after “also recorded” stand apart in the source; their conditions may differ.

Tested on: PfBDP1-BRD (303–488)
Assay: NMR chemical shift perturbation (2D 15N-1H HSQC) titration with histone peptides
Format: binding, Plasmodium falciparum
Conditions: 0.3–0.5 mM 15N-labeled PfBDP1-BRD (303–488); 20 mM Tris-HCl pH 6.8, 150 mM NaCl, 10 mM DTT, 10% D2O; molar ratios 1:0, 1:0.5, 1:1, 1:2.5, 1:5; 25°C; result in words
Method: Chemical shift perturbation experiments were performed using 0.3–0.5 mM of uniformly ^15N-labeled PfBDP1-BRD (303–488) in NMR buffer containing 20 mM Tris-HCl pH 6.8, 150 mM NaCl, 10 mM DTT and 10% D2O. […] Two-dimensional ^15N−^1H HSQC (heteronuclear single quantum coherence) experiments for all samples were acquired on Bruker Avance III spectrometer equipped with a cryogenic 1.7 mm probe. The temperature of the samples was regulated at 25°C throughout data collection. All spectra were processed using TopSpin (Bruker) as described previously and analyzed using NMRFAM-SPARKY [48].

**Q.** “MEVPGVIGG(Kac)VGGKVGGKVLGLG [H2A.ZK11ac, histone H2A.Z peptide mono-acetylated at K11]” was tested. Which “Chemical shift perturbations (CSPs) of PfBDP1-BRD backbone amide peaks upon addition of peptide” value did it give?
**A.** absence of CSPs

**Q.** For “ARTKQTAR(Kac)STGGKAPRKQLATKA [H3K9ac, histone H3 peptide (1–24) mono-acetylated at lysine 9]”, which “Chemical shift perturbations (CSPs) of PfBDP1-BRD backbone amide peaks upon addition of peptide” value is on record?
**A.** did not observe any CSPs

Molecular target: PfBDP1-BRD (P. falciparum Bromodomain Protein 1 bromodomain)
Assay: ITC binding assay of PfBDP1-BRD with histone peptides
Design: species or system Plasmodium falciparum
Conditions: 5°C, 20 mM sodium phosphate pH 7.5, 150 mM NaCl, 1 mM TCEP, protein (303–488 or 333–456) 100–200 μM in cell, peptide 2.5–5.0 mM in syringe, 1:1 binding model, mean ± SD of three runs, non-binding ligands in duplicate
Method: Isothermal titration calorimetry (ITC) experiments were carried out using a MicroCal PEAQ-ITC and a MicroCal iTC200 (Malvern Panalytical). The purified PfBDP1-BRD proteins (containing residues 303–488 or 333–456) were dialyzed for 48 h at 4°C into ITC buffer containing 20 mM sodium phosphate buffer pH 7.5, 150 mM NaCl, and 1 mM TCEP. The dialyzed PfBDP1-BRD (303–488 or 333–456) proteins were added to the sample cell at concentrations of 100–200 μM, and between 2.5 and 5.0 mM of each histone peptide in the ITC dialysis buffer was placed in the injection syringe. A total of 20 injections were carried out, with the parameters set as follows. […] The remaining 19 injections were completed with an injection volume of 2 μL, a reaction time of 4 s, and a 150 s spacing time between each injection. All ITC runs were carried out at 5°C with a differential power (DP) value of 10, the feedback set to high, at a stirring speed of 750 RPM, and with an initial delay for the reaction set to 60 s.
The ITC data obtained were analyzed using the MicroCal PEAQ-ITC 200 analysis software provided with the instrument (Malvern Panalytical). The heat of dilutions for the buffer and peptide ligands were obtained from titrating buffer into buffer, buffer into PfBDP1-BRD protein (303–488 and 333–456), and histone peptide into buffer. The heats of dilution for the histone peptides were subtracted from the raw isotherms obtained from the histone peptide and PfBDP1-BRD (303–488 and 333–456) protein titrations. The first injection was discarded from the data analysis, and the data was integrated using a 1:1 binding model assuming a single set of identical binding sites. A Marquandt nonlinear least-squares analysis was used to calculate the binding affinities and N values from the normalized heat changes. Binding experiments were repeated in triplicate for each ligand and the mean KD was calculated from the average of the three runs, with the standard deviation coming from the mean.

**Q.** For “MEVPGVIGG(Kac)VGGKVGGKVLGLG [H2A.ZK11ac, histone H2A.Z peptide mono-acetylated at K11]”, which “PfBDP1-BRD KD” value is on record?
**A.** No Binding

**Q.** For “ARTKQTAR(Kac)STGGKAPRKQLATKA [H3K9ac, histone H3 peptide (1–24) mono-acetylated at lysine 9]”, which “PfBDP1-BRD KD” value is on record?
**A.** did not observe any interaction; also recorded: No Binding

**Q.** How did the “PfBDP1-BRD KD” value turn out when “MEVPGVIGGKVGG(Kac)VGGKVLGLG [H2A.ZK15ac, histone H2A.Z peptide mono-acetylated at K15]” was run?
**A.** No Binding

**Q.** With “SGKGPAQKSQAAKKTAGKTLGPR [H2B.Z unmodified, unmodified P. falciparum histone variant H2B.Z peptide]” as the substance, how does the “PfBDP1-BRD KD” value read?
**A.** No Binding

**Q.** “SGKGPAQKSQAAK(Kac)TAGKTLGPR [H2B.ZK14ac, histone H2B.Z peptide mono-acetylated at K14]” was tested. Which “PfBDP1-BRD KD” value did it give?
**A.** No Binding

**Q.** For “SG(Kac)GPAQKSQAAKKTAGKTLGPR [H2B.ZK3ac, histone H2B.Z peptide mono-acetylated at K3]”, which “PfBDP1-BRD KD” value is on record?
**A.** No Binding

**Q.** For “SGKGPAQKSQAA(Kac)KTAGKTLGPR [H2B.ZK13ac, histone H2B.Z peptide mono-acetylated at K13]”, which “PfBDP1-BRD KD” value is on record?
**A.** No Binding

**Q.** For “SGRGKGG(Kac)GLGKGGAKRHRKVLRD [H4K8ac, histone H4 peptide (1–24) mono-acetylated at K8]”, which “PfBDP1-BRD KD” value is on record?
**A.** No Binding

**Q.** For “MEVPGVIGGKVGGKVGGKVLGLG [H2A.Z unmodified, unmodified P. falciparum histone variant H2A.Z peptide]”, which “PfBDP1-BRD KD” value is on record?
**A.** No Binding

**Q.** Which “PfBDP1-BRD KD” value does the source give for “MEVPGVIGGKVGGKVGG(Kac)VLGLG [H2A.ZK19ac, histone H2A.Z peptide mono-acetylated at K19]” here?
**A.** No Binding

**Q.** With “SGKGPAQ(Kac)SQAAKKTAGKTLGPR [H2B.ZK8ac, histone H2B.Z peptide mono-acetylated at K8]” as the substance, how does the “PfBDP1-BRD KD” value read?
**A.** No Binding

**Q.** “SGKGPAQKSQAAKKTAG(Kac)TLGPR [H2B.ZK18ac, histone H2B.Z peptide mono-acetylated at K18]” was tested. Which “PfBDP1-BRD KD” value did it give?
**A.** No Binding
